Assay results: article PMC4579270, “Identification and Characterization of an Irreversible Inhibitor of CDK2” (Chemistry & Biology, 2015)

Assays:
Test in all cases: Dundee protein kinase screen
Assay type in all cases: biochemical
[1] = molecular target: IGF-1R (Homo sapiens, UniProt P08069); settings: read-out: %Remaining activity at 1µM NU6300
Procedure: (§1) Prior to determining its cellular activity, we carried out a screen to assess its selectivity against a panel of 131 protein kinases under conditions that would not distinguish between a reversible or irreversible mode of action. […] These 13 kinases and 29 additional kinases, selected for their known sensitivity to other inhibitors within the purine series, were then tested in a modified screening format in which the assay was repeated following a 4-hr pre-incubation (Table S3B). […] However, conformational flexibility around the active site may promote such an interaction with a residue from another part of the structure ([Martin et al., 2012]).
(§2) Table S3, Related to Figure 4. NCL-0006300 protein kinase selectivity. (A) NU6300 was tested at a single concentration of 1µM against 131 protein kinases present in a Dundee protein kinase screen (Bain et al., 2007). Values given are % activity remaining and are the average of duplicate measurements: 0-25% (red), 26-50% (yellow), 51-80% (black) and above 81% (green). The kinase domain sequences (as defined by UniProt) of […]
(§3) have a lysine residue at a position close to CDK2 Lys88 or Lys89. However, in the structure of tyrosine-protein kinase BTK (PDB ID: 3GEN) the residue equivalent to CDK2 Asp86 is Cys481 and therefore there is the potential for a covalent adduct to be formed through this side chain. […]

[2] = molecular target: DYRK2 (Homo sapiens, UniProt Q92630); settings: DYRK2, 1µM; read-out: %Remaining activity at 1µM NU6300
DYRK2, sequence (Q92630 whole entry): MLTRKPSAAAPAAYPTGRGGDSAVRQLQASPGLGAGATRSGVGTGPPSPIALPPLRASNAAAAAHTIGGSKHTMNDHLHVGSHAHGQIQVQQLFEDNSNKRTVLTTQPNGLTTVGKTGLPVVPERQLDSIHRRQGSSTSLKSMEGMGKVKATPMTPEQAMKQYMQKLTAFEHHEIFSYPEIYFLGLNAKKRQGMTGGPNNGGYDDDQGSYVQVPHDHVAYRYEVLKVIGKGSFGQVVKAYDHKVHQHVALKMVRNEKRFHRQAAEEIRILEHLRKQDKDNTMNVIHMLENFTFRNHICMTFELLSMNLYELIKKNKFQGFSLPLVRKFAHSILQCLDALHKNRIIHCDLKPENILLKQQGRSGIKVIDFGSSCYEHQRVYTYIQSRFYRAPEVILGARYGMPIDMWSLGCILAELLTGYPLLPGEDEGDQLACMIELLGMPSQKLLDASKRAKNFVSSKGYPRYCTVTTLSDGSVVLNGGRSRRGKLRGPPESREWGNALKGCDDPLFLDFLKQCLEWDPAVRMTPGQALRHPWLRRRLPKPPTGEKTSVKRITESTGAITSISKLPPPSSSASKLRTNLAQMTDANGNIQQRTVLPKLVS
Procedure: as §1, §2, §3

[3] = molecular target: GCK (Homo sapiens, UniProt Q12851); settings: read-out: %Remaining activity at 1µM NU6300
Procedure: as §1, §2, §3

[4] = molecular target: MAPKAP-K2 (Homo sapiens, UniProt P49137); settings: MAPKAP-K2, 1µM; read-out: %Remaining activity at 1µM NU6300
Procedure: as §1, §2, §3

[5] = molecular target: CDK2-Cyclin A (Homo sapiens, UniProt P24941); settings: read-out: %Remaining activity at 1µM NU6300
Procedure: as §1, §2, §3

[6] = molecular target: BRK (Homo sapiens, UniProt Q13882); settings: read-out: %Remaining activity at 1µM NU6300
BRK, sequence (Q13882 whole entry): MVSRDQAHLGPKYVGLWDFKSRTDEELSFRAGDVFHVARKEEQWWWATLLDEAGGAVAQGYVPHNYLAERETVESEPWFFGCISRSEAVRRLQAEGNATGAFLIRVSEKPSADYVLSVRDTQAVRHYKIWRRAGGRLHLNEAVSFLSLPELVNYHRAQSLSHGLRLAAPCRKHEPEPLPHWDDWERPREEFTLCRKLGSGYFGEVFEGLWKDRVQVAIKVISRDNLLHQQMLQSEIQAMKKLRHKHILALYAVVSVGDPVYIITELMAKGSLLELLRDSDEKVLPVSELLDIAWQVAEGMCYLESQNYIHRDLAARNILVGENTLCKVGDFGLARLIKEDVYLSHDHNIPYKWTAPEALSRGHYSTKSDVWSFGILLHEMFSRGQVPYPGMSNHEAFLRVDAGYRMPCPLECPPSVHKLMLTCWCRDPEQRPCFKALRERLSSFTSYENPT
Procedure: as §1, §2, §3

[7] = molecular target: IKKe (Homo sapiens, UniProt Q14164); settings: read-out: %Remaining activity at 1µM NU6300
IKKe, sequence (Q14164 whole entry): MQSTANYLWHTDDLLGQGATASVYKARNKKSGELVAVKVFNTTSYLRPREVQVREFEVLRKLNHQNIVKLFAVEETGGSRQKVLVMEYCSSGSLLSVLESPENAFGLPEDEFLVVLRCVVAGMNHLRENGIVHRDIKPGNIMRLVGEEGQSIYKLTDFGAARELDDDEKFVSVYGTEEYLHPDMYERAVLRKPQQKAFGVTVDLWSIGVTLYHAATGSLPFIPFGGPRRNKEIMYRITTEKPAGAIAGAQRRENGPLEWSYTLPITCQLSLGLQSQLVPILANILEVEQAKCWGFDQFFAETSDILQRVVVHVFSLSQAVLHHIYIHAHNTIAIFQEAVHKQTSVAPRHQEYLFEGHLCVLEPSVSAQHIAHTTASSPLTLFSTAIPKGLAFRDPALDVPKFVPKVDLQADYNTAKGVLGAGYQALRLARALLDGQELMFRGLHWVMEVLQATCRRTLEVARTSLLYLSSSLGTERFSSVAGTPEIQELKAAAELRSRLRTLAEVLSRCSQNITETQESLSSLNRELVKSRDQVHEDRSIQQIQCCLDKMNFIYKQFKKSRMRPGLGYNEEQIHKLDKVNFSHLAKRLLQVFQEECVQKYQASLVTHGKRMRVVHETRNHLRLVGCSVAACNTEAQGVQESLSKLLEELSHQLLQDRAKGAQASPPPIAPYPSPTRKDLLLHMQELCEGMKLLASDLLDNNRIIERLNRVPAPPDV
Procedure: as §1, §2, §3

[8] = molecular target: T1, CHK1 (Homo sapiens, UniProt O14757); settings: CHK1, 1µM; read-out: %Remaining activity at 1µM NU6300
T1 sequence (O14757 1-476): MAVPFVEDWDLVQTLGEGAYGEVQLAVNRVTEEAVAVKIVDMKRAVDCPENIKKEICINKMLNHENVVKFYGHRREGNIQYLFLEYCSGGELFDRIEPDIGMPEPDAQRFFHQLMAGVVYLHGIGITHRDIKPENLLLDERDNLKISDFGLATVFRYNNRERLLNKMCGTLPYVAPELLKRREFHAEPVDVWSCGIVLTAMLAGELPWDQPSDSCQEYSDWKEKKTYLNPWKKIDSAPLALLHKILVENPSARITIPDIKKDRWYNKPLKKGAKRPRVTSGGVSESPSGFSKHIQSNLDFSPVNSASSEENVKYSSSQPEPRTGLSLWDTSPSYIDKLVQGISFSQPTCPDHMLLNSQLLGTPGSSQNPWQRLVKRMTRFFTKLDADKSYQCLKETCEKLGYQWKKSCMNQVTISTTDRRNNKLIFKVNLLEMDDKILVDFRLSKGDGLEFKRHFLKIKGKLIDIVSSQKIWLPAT
Procedure: as §1, §2, §3

[9] = molecular target: CLK2 (Homo sapiens, UniProt P49760); settings: CLK2, 1µM; read-out: %Remaining activity at 1µM NU6300
Procedure: as §1, §2, §3

[10] = molecular target: EF2K (Homo sapiens, UniProt O00418); settings: read-out: %Remaining activity at 1µM NU6300
Procedure: as §1, §2, §3

[11] = molecular target: MARK2 (Homo sapiens, UniProt Q7KZI7); settings: MARK2, 1µM; read-out: %Remaining activity at 1µM NU6300
MARK2, sequence (Q7KZI7 whole entry): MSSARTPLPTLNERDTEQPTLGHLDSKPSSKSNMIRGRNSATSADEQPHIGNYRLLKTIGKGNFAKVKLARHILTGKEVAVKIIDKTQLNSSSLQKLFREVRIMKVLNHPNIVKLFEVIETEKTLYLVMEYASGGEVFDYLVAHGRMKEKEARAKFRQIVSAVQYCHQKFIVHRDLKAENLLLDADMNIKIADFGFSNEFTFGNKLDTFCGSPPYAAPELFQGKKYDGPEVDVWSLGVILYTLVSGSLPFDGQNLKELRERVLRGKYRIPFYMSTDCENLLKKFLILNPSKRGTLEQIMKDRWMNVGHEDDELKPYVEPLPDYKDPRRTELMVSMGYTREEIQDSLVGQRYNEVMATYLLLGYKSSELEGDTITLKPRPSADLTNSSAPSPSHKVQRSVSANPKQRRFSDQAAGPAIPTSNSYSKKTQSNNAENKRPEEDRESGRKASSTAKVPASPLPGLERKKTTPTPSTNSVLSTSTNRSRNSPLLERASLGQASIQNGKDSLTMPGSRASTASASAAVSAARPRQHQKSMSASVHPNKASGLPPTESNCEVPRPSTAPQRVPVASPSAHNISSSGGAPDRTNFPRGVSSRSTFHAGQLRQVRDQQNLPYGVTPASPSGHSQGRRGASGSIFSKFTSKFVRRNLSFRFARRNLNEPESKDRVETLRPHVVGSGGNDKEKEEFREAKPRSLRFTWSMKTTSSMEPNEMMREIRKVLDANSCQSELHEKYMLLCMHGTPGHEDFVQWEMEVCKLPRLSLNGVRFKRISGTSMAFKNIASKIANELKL
Procedure: as §1, §2, §3

[12] = molecular target: IKKb (Homo sapiens, UniProt O14920); settings: read-out: %Remaining activity at 1µM NU6300
Procedure: as §1, §2, §3

[13] = molecular target: EPH-A2 (Homo sapiens, UniProt P29317); settings: EPH-A2, 1µM; read-out: %Remaining activity at 1µM NU6300
Procedure: as §1, §2, §3

[14] = molecular target: BTK (Homo sapiens, UniProt Q06187); settings: read-out: %Remaining activity at 1µM NU6300
BTK, sequence (Q06187 whole entry): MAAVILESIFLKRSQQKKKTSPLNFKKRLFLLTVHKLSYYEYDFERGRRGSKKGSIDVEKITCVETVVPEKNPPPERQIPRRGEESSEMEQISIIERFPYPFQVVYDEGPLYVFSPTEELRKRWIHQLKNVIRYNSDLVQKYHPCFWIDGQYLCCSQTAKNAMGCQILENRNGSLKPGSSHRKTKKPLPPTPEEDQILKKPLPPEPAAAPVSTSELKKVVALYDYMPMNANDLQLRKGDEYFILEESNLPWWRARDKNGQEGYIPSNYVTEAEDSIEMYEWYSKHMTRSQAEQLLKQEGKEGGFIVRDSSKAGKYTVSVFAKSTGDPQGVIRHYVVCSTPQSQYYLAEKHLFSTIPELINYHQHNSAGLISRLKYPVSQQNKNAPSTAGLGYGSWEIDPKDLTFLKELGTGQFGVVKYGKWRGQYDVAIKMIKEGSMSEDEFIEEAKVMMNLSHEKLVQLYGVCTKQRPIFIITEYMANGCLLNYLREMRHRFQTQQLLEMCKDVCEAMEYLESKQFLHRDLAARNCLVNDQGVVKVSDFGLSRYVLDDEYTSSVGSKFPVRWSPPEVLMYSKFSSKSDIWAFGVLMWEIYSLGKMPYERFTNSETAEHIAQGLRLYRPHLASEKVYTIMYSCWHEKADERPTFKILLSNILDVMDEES
Procedure: as §1, §2, §3

[15] = molecular target: T2, Aurora A (Homo sapiens, UniProt O14965); settings: read-out: %Remaining activity at 1µM NU6300
T2 sequence (O14965 1-403): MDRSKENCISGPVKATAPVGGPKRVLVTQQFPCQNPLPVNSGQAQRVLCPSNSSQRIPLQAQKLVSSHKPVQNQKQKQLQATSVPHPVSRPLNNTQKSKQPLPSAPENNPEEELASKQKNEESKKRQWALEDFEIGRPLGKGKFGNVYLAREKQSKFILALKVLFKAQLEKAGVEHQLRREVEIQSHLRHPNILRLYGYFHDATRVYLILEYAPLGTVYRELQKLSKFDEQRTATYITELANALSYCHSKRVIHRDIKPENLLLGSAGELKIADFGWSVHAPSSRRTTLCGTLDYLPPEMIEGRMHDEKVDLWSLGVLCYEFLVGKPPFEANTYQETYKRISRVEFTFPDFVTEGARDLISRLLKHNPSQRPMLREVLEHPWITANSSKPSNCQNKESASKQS
Procedure: as §1, §2, §3

[16] = molecular target: CK1γ2 (Homo sapiens, UniProt P78368); settings: CK1γ2, 1µM; read-out: %Remaining activity at 1µM NU6300
Procedure: as §1, §2, §3

[17] = molecular target: Lck (Homo sapiens, UniProt P06239); settings: read-out: %Remaining activity at 1µM NU6300
Lck, sequence (P06239 whole entry): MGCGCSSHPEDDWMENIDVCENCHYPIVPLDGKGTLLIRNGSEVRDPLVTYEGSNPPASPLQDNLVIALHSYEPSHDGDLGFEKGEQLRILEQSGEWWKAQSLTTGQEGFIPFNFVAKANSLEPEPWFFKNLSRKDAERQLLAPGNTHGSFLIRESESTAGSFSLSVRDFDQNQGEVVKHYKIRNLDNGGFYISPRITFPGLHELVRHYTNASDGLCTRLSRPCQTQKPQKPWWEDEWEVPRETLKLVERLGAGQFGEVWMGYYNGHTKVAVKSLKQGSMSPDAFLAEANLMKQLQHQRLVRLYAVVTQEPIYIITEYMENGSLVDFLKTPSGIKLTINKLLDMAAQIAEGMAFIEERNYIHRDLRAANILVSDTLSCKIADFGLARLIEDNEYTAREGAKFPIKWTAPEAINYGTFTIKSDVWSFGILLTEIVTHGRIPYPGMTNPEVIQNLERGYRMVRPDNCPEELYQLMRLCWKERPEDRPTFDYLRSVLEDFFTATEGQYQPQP
Procedure: as §1, §2, §3

IGF-1R, sequence (P08069 31-1367): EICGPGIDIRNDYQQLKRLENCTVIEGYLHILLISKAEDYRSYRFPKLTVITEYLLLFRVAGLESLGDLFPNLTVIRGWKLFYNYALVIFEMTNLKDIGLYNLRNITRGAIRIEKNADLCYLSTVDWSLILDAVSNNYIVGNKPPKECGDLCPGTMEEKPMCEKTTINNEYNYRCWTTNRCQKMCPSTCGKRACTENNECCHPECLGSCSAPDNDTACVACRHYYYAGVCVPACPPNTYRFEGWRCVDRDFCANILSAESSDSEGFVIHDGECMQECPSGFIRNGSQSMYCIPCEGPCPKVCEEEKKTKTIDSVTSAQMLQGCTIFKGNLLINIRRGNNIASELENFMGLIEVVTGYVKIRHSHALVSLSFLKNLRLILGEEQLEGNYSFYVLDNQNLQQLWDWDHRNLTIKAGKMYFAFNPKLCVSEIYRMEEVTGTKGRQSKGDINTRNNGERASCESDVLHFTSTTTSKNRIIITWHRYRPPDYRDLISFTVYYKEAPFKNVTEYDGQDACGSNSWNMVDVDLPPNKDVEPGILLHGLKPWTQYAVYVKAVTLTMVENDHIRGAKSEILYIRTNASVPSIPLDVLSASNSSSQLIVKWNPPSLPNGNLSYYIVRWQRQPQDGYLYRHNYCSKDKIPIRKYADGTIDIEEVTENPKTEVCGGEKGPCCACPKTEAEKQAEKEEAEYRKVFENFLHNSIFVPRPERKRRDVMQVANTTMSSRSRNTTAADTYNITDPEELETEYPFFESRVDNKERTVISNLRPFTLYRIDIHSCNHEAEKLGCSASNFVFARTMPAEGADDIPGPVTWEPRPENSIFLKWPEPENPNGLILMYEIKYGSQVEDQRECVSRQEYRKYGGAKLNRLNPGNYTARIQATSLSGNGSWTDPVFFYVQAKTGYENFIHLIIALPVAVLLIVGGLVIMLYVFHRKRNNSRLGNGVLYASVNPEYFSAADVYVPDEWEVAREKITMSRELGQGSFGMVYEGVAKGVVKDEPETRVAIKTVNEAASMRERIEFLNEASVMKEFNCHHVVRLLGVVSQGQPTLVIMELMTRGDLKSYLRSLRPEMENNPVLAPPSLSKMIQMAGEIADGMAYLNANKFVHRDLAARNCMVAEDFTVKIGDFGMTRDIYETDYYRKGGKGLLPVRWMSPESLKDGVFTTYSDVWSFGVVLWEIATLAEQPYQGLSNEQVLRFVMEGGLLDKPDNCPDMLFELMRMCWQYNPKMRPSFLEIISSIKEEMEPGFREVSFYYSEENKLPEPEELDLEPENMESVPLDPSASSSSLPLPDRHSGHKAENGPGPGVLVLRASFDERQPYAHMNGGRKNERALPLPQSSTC

## C=CS(=O)(=O)c1ccc(Nc2nc(OCC3CCCCC3)c3nc[nH]c3n2)cc1 [NU6300, 6-(cyclohexylmethoxy)-N-(4-(vinylsulfonyl)phenyl)-9H-purin-2-amine]
[1]
  remaining activity at 1 µM: 79%
[2]
  remaining activity at 1 µM: 78%
[3]
  remaining activity at 1 µM: 26%
[4]
  remaining activity at 1 µM: 93%
[5]
  remaining activity at 1 µM: 27%
[6]
  remaining activity at 1 µM: 59%
[7]
  remaining activity at 1 µM: 68%
[8]
  remaining activity at 1 µM: 38%
[9]
  remaining activity at 1 µM: 27%
[10]
  remaining activity at 1 µM: 69%
[11]
  remaining activity at 1 µM: 69%
[12]
  remaining activity at 1 µM: 84%
[13]
  remaining activity at 1 µM: 91%
[14]
  remaining activity at 1 µM: 17%
[15]
  remaining activity at 1 µM: 18%
[16]
  remaining activity at 1 µM: 79%
[17]
  remaining activity at 1 µM: 42%
